One assay relates to HCV replicon genotype 1b. Nature of the assay: HCV replicon assay, genotype 1b (cell ELISA for NS3/4A). In kind it is cell-based, hepatitis C virus. The following applies: Hepatitis C virus, 96 h, read-out: 1b IC50 (nM), HCV genotype 1b replicon cells, 96 hours incubation, NS3/4A ELISA readout, % of DMSO control. A digest of the protocol:
(§1)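 Stable neomycin-resistant replicon cell lines (genotype 1a or 1b) incubated 96 h with compound dilution series without G418. After washing and lysis, replication measured by cell ELISA for replicon-encoded NS3/4A protein; IC50 as % of DMSO control via four-parameter fit.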

The next assay concerns HCV replicon genotype 1a. The experiment in a line: HCV replicon assay, genotype 1a (cell ELISA for NS3/4A). In kind it is cell-based, hepatitis C virus. The following applies: Hepatitis C virus, 96 h, read-out: 1a IC50 (nM), HCV genotype 1a replicon cells, 96 hours incubation, NS3/4A ELISA readout, % of DMSO control. In a few lines: as §1

Regarding `CNC(=O)c1c(-c2ccc(F)cc2)oc2cc(N(C)S(C)(=O)=O)c([C@@H]3CCCN(S(=O)(=O)c4cnc5c(c4)OCCN5C)C3)cc12` [Example 127, 2-(4-fluorophenyl)-N-methyl-5-{(3S)-1-[(4-methyl-3,4-dihydro-2H-pyrido[3,2-b][1,4]oxazin-7-yl)sulfonyl]piperidin-3-yl}-6-[methyl(methylsulfonyl)amino]-1-benzofuran-3-carboxamide], the IC50 in the assay on HCV replicon genotype 1b came to 32.4 nM; in the assay with HCV replicon genotype 1a, 90.2 nM.

`CNC(=O)c1c(-c2ccc(F)cc2)oc2cc(N(C)S(C)(=O)=O)c([C@H]3CCCN(S(=O)(=O)c4ccccc4C)C3)cc12` [Example 128, 2-(4-fluorophenyl)-N-methyl-6-[methyl(methylsulfonyl)amino]-5-{(3R)-1-[(2-methylphenyl)sulfonyl]piperidin-3-yl}-1-benzofuran-3-carboxamide]: the values for the IC50 in the assay on HCV replicon genotype 1b and with HCV replicon genotype 1a were 24.2 nM and 34.2 nM, respectively.

On to `CNC(=O)c1c(-c2ccc(F)cc2)oc2cc(N(C)S(C)(=O)=O)c([C@H]3CCCN(S(=O)(=O)c4ccc5ncsc5c4)C3)cc12` [Example 129, 5-[(3R)-1-(1,3-benzothiazol-6-ylsulfonyl)piperidin-3-yl]-2-(4-fluorophenyl)-N-methyl-6-[methyl(methylsulfonyl)amino]-1-benzofuran-3-carboxamide], for which the IC50 in the assay with HCV replicon genotype 1b came to 110 nM; in the assay with HCV replicon genotype 1a it was 194 nM.

Regarding `CNC(=O)c1c(-c2ccc(F)cc2)oc2cc(N(C)S(C)(=O)=O)c([C@H]3CCCN(S(=O)(=O)c4cccc(F)c4)C3)cc12` [Example 130, 2-(4-fluorophenyl)-5-{(3R)-1-[(3-fluorophenyl)sulfonyl]piperidin-3-yl}-N-methyl-6-[methyl(methylsulfonyl)amino]-1-benzofuran-3-carboxamide], the figures for the IC50 in the assay with HCV replicon genotype 1b and with HCV replicon genotype 1a were 95.5 nM and 174 nM, respectively.

For `CNC(=O)c1c(-c2ccc(F)cc2)oc2cc(N(C)S(C)(=O)=O)c([C@H]3CCCN(S(=O)(=O)c4ccc(F)cc4)C3)cc12` [Example 131, 2-(4-fluorophenyl)-5-{(3R)-1-[(4-fluorophenyl)sulfonyl]piperidin-3-yl}-N-methyl-6-[methyl(methylsulfonyl)amino]-1-benzofuran-3-carboxamide], the figures for the IC50 in the assay with HCV replicon genotype 1b and in the assay on HCV replicon genotype 1a were 88.9 nM and 176 nM, respectively.

As for `CNC(=O)c1c(-c2ccc(F)cc2)oc2cc(N(C)S(C)(=O)=O)c([C@H]3CCCN(S(=O)(=O)C4CCCCC4)C3)cc12` [Example 132, 5-[(3R)-1-(cyclohexylsulfonyl)piperidin-3-yl]-2-(4-fluorophenyl)-N-methyl-6-[methyl(methylsulfonyl)amino]-1-benzofuran-3-carboxamide], the IC50 with HCV replicon genotype 1b amounted to 56.1 nM; with HCV replicon genotype 1a, 93.3 nM.

For `CNC(=O)c1c(-c2ccc(F)cc2)oc2cc(N(C)S(C)(=O)=O)c([C@H]3CCCN(S(=O)(=O)c4c(Cl)nc5sccn45)C3)cc12` [Example 133, 5-{(3R)-1-[(6-chloroimidazo[2,1-b][1,3]thiazol-5-yl)sulfonyl]piperidin-3-yl}-2-(4-fluorophenyl)-N-methyl-6-[methyl(methylsulfonyl)amino]-1-benzofuran-3-carboxamide], the IC50 in the assay with HCV replicon genotype 1b is 74.7 nM; in the assay with HCV replicon genotype 1a, 106 nM.

As to `CNC(=O)c1c(-c2ccc(F)cc2)oc2cc(N(C)S(C)(=O)=O)c([C@H]3CCCN(S(=O)(=O)c4ccccc4)C3)cc12` [Example 134, 2-(4-fluorophenyl)-N-methyl-6-[methyl(methylsulfonyl)amino]-5-[(3R)-1-(phenylsulfonyl)piperidin-3-yl]-1-benzofuran-3-carboxamide], the IC50 in the assay with HCV replicon genotype 1b is 58.3 nM; with HCV replicon genotype 1a, 85.9 nM.

For the compound `CNC(=O)c1c(-c2ccc(F)cc2)oc2cc(N(C)S(C)(=O)=O)c([C@H]3CCCN(S(=O)(=O)C4CCCC4)C3)cc12` [Example 135, 5-[(3R)-1-(cyclopentylsulfonyl)piperidin-3-yl]-2-(4-fluorophenyl)-N-methyl-6-[methyl(methylsulfonyl)amino]-1-benzofuran-3-carboxamide], the IC50 worked out at 45.6 nM with HCV replicon genotype 1b and 80.4 nM with HCV replicon genotype 1a.

As for `CNC(=O)c1c(-c2ccc(F)cc2)oc2cc(N(C)S(C)(=O)=O)c([C@H]3CCCN(S(=O)(=O)c4ccccc4F)C3)cc12` [Example 136, 2-(4-fluorophenyl)-5-{(3R)-1-[(2-fluorophenyl)sulfonyl]piperidin-3-yl}-N-methyl-6-[methyl(methylsulfonyl)amino]-1-benzofuran-3-carboxamide], the figures for the IC50 with HCV replicon genotype 1b and with HCV replicon genotype 1a were 40.5 nM and 58.5 nM, respectively.

As for `CNC(=O)c1c(-c2ccc(F)cc2)oc2cc(N(C)S(C)(=O)=O)c([C@H]3CCCN(S(=O)(=O)Cc4ccccc4)C3)cc12` [Example 137, 5-[(3R)-1-(benzylsulfonyl)piperidin-3-yl]-2-(4-fluorophenyl)-N-methyl-6-[methyl(methylsulfonyl)amino]-1-benzofuran-3-carboxamide], the values for the IC50 in the assay on HCV replicon genotype 1b and in the assay with HCV replicon genotype 1a were 3.04 nM and 2.15 nM, respectively.

Regarding `CNC(=O)c1c(-c2ccc(F)cc2)oc2cc(N(C)S(C)(=O)=O)c([C@H]3CCCN(S(=O)(=O)c4cccc5nonc45)C3)cc12` [Example 138, 5-[(3R)-1-(2,1,3-benzoxadiazol-4-ylsulfonyl)piperidin-3-yl]-2-(4-fluorophenyl)-N-methyl-6-[methyl(methylsulfonyl)amino]-1-benzofuran-3-carboxamide], the IC50 in the assay on HCV replicon genotype 1b is 55.7 nM; in the assay with HCV replicon genotype 1a, 139 nM.

On to `CNC(=O)c1c(-c2ccc(F)cc2)oc2cc(N(C)S(C)(=O)=O)c([C@H]3CCCN(S(=O)(=O)Cc4ccccn4)C3)cc12` [Example 139, 2-(4-fluorophenyl)-N-methyl-6-[methyl(methylsulfonyl)amino]-5-{(3R)-1-[(pyridin-2-ylmethyl)sulfonyl]piperidin-3-yl}-1-benzofuran-3-carboxamide], for which the values for the IC50 in the assay on HCV replicon genotype 1b and with HCV replicon genotype 1a were 21.1 nM and 35 nM, respectively.

As for `CNC(=O)c1c(-c2ccc(F)cc2)oc2cc(N(C)S(C)(=O)=O)c([C@H]3CCCN(S(=O)(=O)Cc4cccnc4)C3)cc12` [Example 140, 2-(4-fluorophenyl)-N-methyl-6-[methyl(methylsulfonyl)amino]-5-{(3R)-1-[(pyridin-3-ylmethyl)sulfonyl]piperidin-3-yl}-1-benzofuran-3-carboxamide], the IC50 with HCV replicon genotype 1b was 16.5 nM; with HCV replicon genotype 1a it was 20.5 nM.

As for `CNC(=O)c1c(-c2ccc(F)cc2)oc2cc(N(C)S(C)(=O)=O)c([C@H]3CCCN(S(=O)(=O)CCc4ccccc4)C3)cc12` [Example 141, 2-(4-fluorophenyl)-N-methyl-6-[methyl(methylsulfonyl)amino]-5-{(3R)-1-[(2-phenylethyl)sulfonyl]piperidin-3-yl}-1-benzofuran-3-carboxamide], the IC50 in the assay with HCV replicon genotype 1b was 14.2 nM; in the assay with HCV replicon genotype 1a it was 10.6 nM.

As for `CNC(=O)c1c(-c2ccc(F)cc2)oc2cc(N(C)S(C)(=O)=O)c([C@H]3CCCN(S(=O)(=O)c4cccc(C)c4)C3)cc12` [Example 142, 2-(4-fluorophenyl)-N-methyl-6-[methyl(methylsulfonyl)amino]-5-{(3R)-1-[(3-methylphenyl)sulfonyl]piperidin-3-yl}-1-benzofuran-3-carboxamide], the IC50 with HCV replicon genotype 1b worked out at 91.7 nM; in the assay on HCV replicon genotype 1a it was 198 nM.

Regarding `CNC(=O)c1c(-c2ccc(F)cc2)oc2cc(N(C)S(C)(=O)=O)c([C@H]3CCCN(S(=O)(=O)c4cn(CC(C)C)nc4C)C3)cc12` [Example 143, 2-(4-fluorophenyl)-N-methyl-5-[(3R)-1-{[3-methyl-1-(2-methylpropyl)-1H-pyrazol-4-yl]sulfonyl}piperidin-3-yl]-6-[methyl(methylsulfonyl)amino]-1-benzofuran-3-carboxamide], the IC50 amounted to 214 nM in the assay with HCV replicon genotype 1b and 315 nM in the assay with HCV replicon genotype 1a.

For the origin of these results see US9549921B2, “Heterocyclic compounds and methods of use thereof for the treatment of hepatitis C” (priority 2014, dated 2017).
